Broadly, the IC50 is the concentration at which inhibition is half-maximal.

This assay has as its target T1, MT1-MMP (Homo sapiens, UniProt P50281).
T1 construct: made in house
As to the kind of experiment: In vitro inhibition of MT1-MMP, fluorogenic peptide substrate. The conditions noted are these: catalytic domain of human MT1-MMP; substrate 10 μM; 37° C. In kind it is biochemical. The procedure:
The inhibitory activities of compounds of formula I on MT1-MMP, MMP1 (collagenase 1) and MMP2 (gelatinase A) can be determined as follows:
Stock solutions of substrate (MCA-Pro-Leu-Gly-Leu-Dpa-Ala-Arg-NH2, Knight, C. G., Willenbrock, F., Murphy, G., A novel coumarin-labelled peptide for sensitive continuous assays of the matrix metalloproteinases, FEBS lett., 296, 263-266, (1992)), are prepared in 100% DMSO at a concentration 1.0 mM. Stock solutions of inhibitors are prepared in 100% DMSO. The inhibitor is diluted into the assays from a solution in 100% DMSO, and controls substitute an equal volume of DMSO so that the final DMSO concentration from inhibitor and substrate dilutions in all assays is 6.0%. Assays are performed in assay buffer (150 mM NaCl, 10 mM CaCl2, 50 mM Tris-Cl pH7.5, 0.05% Brij-35) containing 6.0% DMSO once the substrate and inhibitor are diluted into it. The substrate concentration used in the assays is 10 μM. The test is carried out at 37° C. The fluorescence changes are monitored using an excitation wavelength of 320 nm and an emission wavelength of […]. The reaction mixture is added in duplicate to appropriate wells of a 96 well microfluor plate. The reaction mixture is preincubated with the inhibitor for 30 min, the reaction is started by the addition of MMP enzyme and the fluorescence intensity is measured for 10 min. A time point that is on a linear part of the curve is chosen to determine the activity. The inhibition results are expressed as the inhibitor concentrations that produced 50% inhibition (IC50) of the activity in the control (non-inhibited) reaction. In this test, the compounds of the formula I and their pharmacologically acceptable salts have an inhibiting concentration IC50 [μmol/litre] of 0.0001 and 0.030, usually of 0.0002 to 0.010, for MMP2 and an inhibiting concentration IC50 [μmol/litre] of 0.0005 and 0.125, usually of 0.001 to 0.05, for MT1-MMP.
Plasmid: The catalytic domain of the cDNA fragment encoding a full length of human MT1-MMP gene [from Prof. Motoharu Seiki, Institute of Medical Science, The University of Tokyo; Sato, H., Takino, T., Okada, Y., Cao, J., Shinagawa, A., Yamamoto, E. and Seiki, M. Nature (London), 370:61-65, 1994)] is amplified by polymerase chain reaction (PCR). […] The resulting PCR product of a 519-bp fragment is subcloned between the NdeI and BamHI unique sites of pET11a (Stratagene). The sequence of catalytic domain of MT1-MMP (CD-MT1-MMP) is verified by the ABI PRIS™ dye terminator cycle sequencing kit with the ABI PRISM™ 377 DNA sequencer (Perkin Elmer).
Expression and Purification: The subcloned CD-MT1-MMP is used to transfect E. coli strain BL21-[DE3] (Hanahan, D. J. Mol. Biol. 1983; 166(4):557-80) and expressed as insoluble inclusion body materials. Transfectants are grown at 37° C. in 50 ml Luria-Bertani (LB) medium in the presence of 50 µg/ml ampicillin to a cell density of OD600=0.6-1.0, and CD-MT1-MMP production is induced with 1 mM isopropyl-1-D-galactopyranoside (IPTG). After treatments with 5 mg/ml lysozyme and 10 μg/ml DNase I, the inclusion bodies are prepared from the harvested cells by using the detergent buffer containing 0.2 M NaCl, 1% w/v deoxycholic acid, and 1% v/v Nonidet P40. The solubilization is achieved by resuspending the inclusion bodies in the solubilization buffer composed of 6 M urea, 100 mM 2-mercaptoethanol, and 20 mM Tris-Cl, pH8.5. The enzyme is purified and renaturated using 10 ml of a Q-Sepharose (Amersham Pharmacia Biotech) column equilibrated with 5 mM CaCl2, 0.02% v/v NaN3, in 20 mM Tris-Cl pH7.5. After washing with three volumes of the same buffer, the bound proteins are eluted with two volumes of a linear gradient of 0.5-1.0 M NaCl. The collected fractions (1 ml each) are dialyzed for 6 h in equilibrated buffer. Superdex G200 column (1×15 cm) (Amersham Pharmacia) is equilibrated in 20 mM Tris-Cl, pH 7.5, 5 mM CaCl2, 0.02% NaN3. The desalted sample is applied to Superdex G200 column and chromatographed at 0.5 ml/min. […]
Consider `C=CCCOc1ccc(S(=O)(=O)N(Cc2cccc(OC)c2)[C@@H](C(=O)NO)C(C)C)cc1` [Example 13, (R)-2-[(4-but-3-enyloxy-benzenesulfonyl)-(3-methoxy-benzyl)-amino]-N-hydroxy-3-methyl-butyramide], for which the IC50 amounted to 5.5 nM. This lies in the single-digit nanomolar range.
`COc1cccc(CN([C@H](C)C(=O)NO)S(=O)(=O)c2ccc(OCCCCl)cc2)c1` [Example 15, (R)-2-{[4-(3-chloro-propoxy)-benzenesulfonyl]-(3-methoxy-benzyl)-amino}-N-hydroxy-propionamide] registered an IC50 of 3.7 nM.
The figure for `O=C(NO)[C@@H](Cc1ccccc1)N(Cc1ccc(Cl)cc1)S(=O)(=O)c1ccc(OCCCF)cc1` [Example 30, (R)-2-{(4-chloro-benzyl)-[4-(3-fluoro-propoxy)-benzenesulfonyl]-amino}-N-hydroxy-3-phenyl-propionamide] is 12.7 nM.
As for `COc1ccc(CN([C@H](CC(C)C)C(=O)NO)S(=O)(=O)c2ccc(OCCCCF)cc2)cc1` [Example 53, (R)-2-{[4-(4-fluoro-butoxy)-benzenesulfonyl]-(4-methoxy-benzyl)-amino}-N-hydroxy-4-methyl-valeramide], the IC50 was 9.2 nM.

These data come from US8034810B2, “Arylsulfonamido-substituted hydroxamic acid derivatives” (Novartis AG, priority 1999, dated 2011).
